Patent US20230223113A1, “Methods and Systems for Rapid Antimicrobial Susceptibility Tests” (The Regents of the University of California, priority 2020, published 2023)
Structures can show the parent of a compound that is named as a salt.

Legend:
[1] = test system: P. aeruginosa cell culture; assay: OD600 of cell culture over time of antibiotic exposure after adjustment to OD 0.5; format: cell-based, Pseudomonas aeruginosa; settings: 50 μg/mL carbenicillin, about 2 hour exposure
Procedure: Optical density at 600 nm (OD600) to identify the minimum inhibitory concentration (MIC) of A) carbenicillin, B) rifampicin, and C) gentamicin for Pseudomonas aeruginosa, and D) gentamicin for Escherichia coli in accordance with an embodiment is illustrated in FIGS. 5A-5D. The P. aeruginosa strain, PA14 used in some embodiments has differing susceptibility to carbenicillin [+C] and rifampicin [+R]. Several embodiments refer to the antibiotic treatments that are performed with 50 μg/mL and 400 μg/mL of carbenicillin and rifampicin, respectively as the AST dataset. These concentrations are just below the respective minimum inhibitory concentrations (MICs) for these antibiotics in P. aeruginosa, as shown in FIGS. 5A and 5B. […]
Pseudomonas aeruginosa (strain PA14 wild type) and Escherichia coli (strain MC4100, K-12, F-araD139Δ(argF-lac)U169 rspL150 relA1 fIbB5301 fruA25 deoC1 ptsF25) cultures were obtained by first streaking from a frozen culture stock onto LB Lennox agar (IBI Scientific) plates and incubated at 37° C. for 24 h. […] The 18 h cultures were centrifuged at 5000 rpm for 5 minutes, then resuspended in fresh LB to reach an optical density at 600 nm (OD600) of 0.50 as measured by a BioChrom Colourwave CO7500 Colorimeter. […]

[2] = test system: Pseudomonas aeruginosa (strain PA14 wild type); assay: Dose-response growth curves (OD600 after 24 h) to identify the minimum inhibitory concentration; format: cell-based; settings: for MIC: Pseudomonas aeruginosa, P. aeruginosa PA14, the stated concentration is 'just below' the MIC
Procedure: Optical density at 600 nm (OD600) to identify the minimum inhibitory concentration (MIC) of A) carbenicillin, B) rifampicin, and C) gentamicin for Pseudomonas aeruginosa, and D) gentamicin for Escherichia coli in accordance with an embodiment is illustrated in FIGS. 5A-5D. The P. aeruginosa strain, PA14 used in some embodiments has differing susceptibility to carbenicillin [+C] and rifampicin [+R]. Several embodiments refer to the antibiotic treatments that are performed with 50 μg/mL and 400 μg/mL of carbenicillin and rifampicin, respectively as the AST dataset. These concentrations are just below the respective minimum inhibitory concentrations (MICs) for these antibiotics in P. aeruginosa, as shown in FIGS. 5A and 5B. OD600 of a P. aeruginosa cell culture at indicated growth times after adjustment to OD at 0.5 at 0 h, A) without antibiotic treatment, B) with 50 μg/mL carbenicillin introduced at 0 h, and C) with 400 μg/mL rifampicin introduced at 0 h in accordance with an embodiment of the invention is illustrated in FIGS. 6A-6C.
Pseudomonas aeruginosa (strain PA14 wild type) and Escherichia coli (strain MC4100, K-12, F-araD139Δ(argF-lac)U169 rspL150 relA1 fIbB5301 fruA25 deoC1 ptsF25) cultures were obtained by first streaking from a frozen culture stock onto LB Lennox agar (IBI Scientific) plates and incubated at 37° C. for 24 h. Individual colonies from these plates were used to inoculate 100 mL of LB in triplicate, and subsequently grown for 18 h at 37° C. and shaking at 230 rpm. The 18 h cultures were centrifuged at 5000 rpm for 5 minutes, then resuspended in fresh LB to reach an optical density at 600 nm (OD600) of 0.50 as measured by a BioChrom Colourwave CO7500 Colorimeter.
Dose-Response Curves: Carbenicillin disodium salt, gentamicin sulfate, and rifampicin stock solutions were prepared to a final concentration of 10 mg/mL in water for the former two and 20% (v/v) DMSO/H2O for the latter. These stock solutions were added into 180 μL of E. coli or P. aeruginosa resuspension in a 96-well plate such that 9 separate 10-fold dilutions of each antibiotic starting at 1000 μg/mL were achieved. Vehicle controls using pure water for carbenicillin and gentamicin and 20% (v/v) DMSO/H2O for rifampicin were also created in the same 96-well plate. These plates were then incubated at 37° C. for 24 h with 230 rpm shaking, after which OD600 measurements were taken with a SpectraMax M2 Plate Reader.

[3] = test system: P. aeruginosa lysate; assay: SERS spectra of cell lysate after antibiotic exposure, VAE latent space analysis; format: cell-based, Pseudomonas aeruginosa
Procedure: The VAE space from analysis of the AST dataset in accordance with many embodiments provide clustering of the different treatment classes. VAE space of AST spectra from untreated [−−] P. aeruginosa lysate (0.5 h/2 h), 50 μg/mL carbenicillin treated [+C] P. aeruginosa lysate (0.5 h/2 h), 400 μg/mL rifampicin treated [+R] P. aeruginosa lysate (0.5 h/2 h) in accordance with an embodiment of the invention is illustrated in FIG. 7A. […] Some embodiments provide that larger relative VAE 1 values can be observed for 30 minute treatment times for all treatment classes as compared to 2 hour exposure. This is consistent with OD600 measurements indicating cell recovery after 2 hour in FIGS. 6A-6C.
Many embodiments provide VAE performance on differentiating spectra from multiple bacterial species, a different antibiotic, time points, and dosages. SERS spectra from cellular lysate with varying dose and temporal response of P. aeruginosa and E. coli when exposed to gentamicin are analyzed similarly as the AST dataset in several embodiments. When analyzing the SERS spectra from E. coli and P. aeruginosa with the VAE method, differentiation of P. aeruginosa lysate data at concentrations at about 0.1 μg/mL, an order of magnitude below the MIC, can be observed in accordance with some embodiments. […]

[4] = test system: E. coli lysate; assay: as above; format: cell-based, Escherichia coli
Procedure: Many embodiments provide VAE performance on differentiating spectra from multiple bacterial species, a different antibiotic, time points, and dosages. SERS spectra from cellular lysate with varying dose and temporal response of P. aeruginosa and E. coli when exposed to gentamicin are analyzed similarly as the AST dataset in several embodiments. When analyzing the SERS spectra from E. coli and P. aeruginosa with the VAE method, differentiation of P. aeruginosa lysate data at concentrations at about 0.1 μg/mL, an order of magnitude below the MIC, can be observed in accordance with some embodiments. FIG. 9A illustrates VAE latent space analysis of SERS spectra of dose response of P. aeruginosa with analysis of 0, 0.1, 0.5, 1, and 10 μg/mL gentamicin dosed lysate respectively in accordance with an embodiment. In several embodiments, lysate from P. aeruginosa exposed to 10 μg/mL gentamicin (10×MIC) can be analyzed with VAE method and differentiated from control data in the VAE space at about 20 minute after initial exposure. The short temporal response time in accordance with some embodiments is much earlier than reported 2 hour response time for SERS AST. FIG. 9B illustrates VAE latent spaces of temporal response of P. aeruginosa with lysate processed after 0, 5, 10, 20, and 40 minutes of 10 μg/mL gentamicin dosage respectively in accordance with an embodiment. […]

Compound	growth inhibition over the time of exposure (OD600) [1]	MIC [2] [µg/mL]	dose as a multiple of the MIC ([2]; 10 μg/mL gentamicin, P. aeruginosa) [×MIC]	resistance of P. aeruginosa (from growth curves, FIGS. 5A-5D) ([2]; P. aeruginosa)	time after initial exposure at which lysate is differentiated from control in VAE space ([3]; 10 μg/mL gentamicin)	antibiotic concentration at which lysate data are differentiated from control in VAE space ([3]; gentamicin dose response 0, 0.1, 0.5, 1, 10 μg/mL, an order of magnitude below the MIC)	time after initial exposure at which discernable clustering appears in VAE space ([4]; 10 μg/mL gentamicin)	antibiotic concentration at which lysate data are differentiated from control treatment in VAE space ([4]; gentamicin dose response 0, 0.1, 0.5, 1, 10 μg/mL) [µg/mL]
CC1(C)S[C@@H]2[C@H](NC(=O)C(C(=O)O)c3ccccc3)C(=O)N2[C@H]1C(=O)O (stereo partly drawn) [carbenicillin, Carbenicillin disodium salt]	does not exhibit any significant growth inhibition	> 50						
CO[C@H]1/C=C/O[C@@]2(C)Oc3c(C)c(O)c4c(O)c(c(/C=N/N5CCN(C)CC5)c(O)c4c3C2=O)NC(=O)/C(C)=C\C=C\[C@H](C)[C@H](O)[C@@H](C)[C@@H](O)[C@@H](C)[C@H](OC(C)=O)[C@@H]1C [rifampicin]		> 400						
gentamicin sulfate			10	evident resistance	about 20 minute	about 0.1 μg/mL	about 10 minute	≤ 0.1
